{"source": "paper PMC12867150", "about": "“A fungi-derived cyclic peptide enhances Th9-mediated antitumor immunity by targeting ZAP70 and SREBP1” (The Journal of Clinical Investigation, 2025)", "key": {"[1]": {"test_system": "transferred CD45.1+ Th9 cells", "assay": "Cytokines and granzyme B/perforin in transferred CD45.1+ Th9 cells (Figure 3G, S4A-C)", "format": "in vivo, mouse", "set-up": "IFN-γ expression / TNF-α expression / Expression of IFN-γ of transferred CD45.1⁺ OT-II Th9 cells in tumors / Expression of TNF-α of transferred CD45.1⁺ OT-II Th9 cells in tumors: unit not given here", "details": "for Expression of GzmB+Perforin+ of transferred CD45.1⁺ OT-II Th9 cells in tumor: Supplemental Figure 4C; for Expression of IFN-γ of transferred CD45.1⁺ OT-II Th9 cells in tumors: Supplemental Figure 4A; for Expression of TNF-α of transferred CD45.1⁺ OT-II Th9 cells in tumors: Supplemental Figure 4B", "description": "C57BL/6 mice were subcutaneously injected with 5 × 10^5 B16-OVA melanoma cells. Five days after tumor implantation, mice received an intravenous infusion of 2 × 10^6 in vitro–differentiated Th9 cells (cultured for 5 days), which were derived from OT-II CD45.1 donor mice, accompanied by 4 × 10^5 OVA peptide–pulsed DCs via the tail vein. To enhance T cell engraftment and facilitate lymphodepletion, a single intraperitoneal injection of cyclophosphamide (200 mg/kg, Sigma, catalog C0768) was administered 1 day prior to T cell transfer. Mice were euthanized at designated time points for the collection and analysis of spleens, tumor-draining lymph nodes, and tumor tissues.\nDetails regarding staining panels (human and mouse), reagents (including clones and catalog numbers), acquisition settings, compensation/controls, and analysis procedures are provided in Supplemental Methods.\nBioLegend, Cat. No. 422301 or Mouse TruStain FcX™, BioLegend, Cat. No. 101319) for 10 minutes at 4°C. For surface marker detection, cells were stained with fluorochrome-conjugated monoclonal antibodies in 96-well V-bottom plates and incubated on ice for 30 minutes. After staining, cells were washed twice and resuspended in FACS buffer for analysis.\nPrior to intracellular cytokine staining, cells were restimulated for 4 hours with PMA (Absin, Cat. No. abs9107), ionomycin (Sigma-Aldrich, Cat. No. I0634), and brefeldin A (MedChemExpress, Cat. No. HY-16592). For intracellular cytokine staining, cells were first surface-stained as described above, then fixed and permeabilized using the BD Cytofix/Cytoperm™ kit (BD Biosciences, Cat. No. 554714) according to the manufacturer ’s protocol. Intracellular proteins were stained with directly conjugated antibodies targeting IL-9, IL-17a, IL-4, IFN-γ, TNF-α, FOXP3, p-ZAP70, Perforin, and […]\nAntibodies used for mouse samples included those against IL-9 (PE, clone RM9A4, Biolegend, Cat. No. 514104), IFN-γ (PE, clone XMG1.2, Biolegend, Cat. No.\nCat. No. 103138), CD4 (APC/Cy7, clone E-AB-F1353UJ, Elabscience, Cat. No.\nAF18028), CD8α (PerCP/Cy5.5, clone E-AB-F1104UJ, Elabscience, Cat. No. […]\nclone E-AB-F1187UH, Elabscience, Cat. No. AF19854), TNF-α (BV421, clone MP6-XT22, Biolegend, Cat. No. 506328), FOXP3 (PE, clone FJK-16s, eBioscience, Cat. No.\nPerforin (APC, clone S16009A, Biolegend, Cat. No. 154303) and Granzyme B (APC, clone QA16A02, Biolegend, Cat. No. 372203). For human samples, antibodies against CD4 (PerCP/Cy5.5, clone RPA-T4, Biolegend, Cat. No. 300530; APC/Cy7, clone OKT4, Biolegend, Cat. No. 317418), CD19 (APC/Cy7, clone SJ25C1, Biolegend, Cat.\nNo. 363009), IFN-γ (PE, clone 4S.B3, Biolegend, Cat. No. 502509), IL-9 (PE, clone"}, "[2]": {"test_system": "mitochondria of Th9 cells", "assay": "Flow cytometry of mitochondrial membrane potential with TMRM (Figure 4N)", "format": "cell-based, mouse", "description": "Mitochondrial mass and membrane potential were assessed using MitoTracker™ Deep Red FM (Thermo Fisher Scientific, catalog M22426) and TMRM (tetramethylrhodamine methyl ester; Macklin, catalog T868125), respectively, following the manufacturers’ protocols. Cells were incubated with the respective dyes, washed, and subjected to flow cytometry or fluorescence microscopy analysis. For ultrastructural assessment, mitochondrial number and diameter were quantified from high-resolution transmission electron microscopy (TEM) images using ImageJ software."}, "[3]": {"details": "transferred CD45.1+ Th9, spleen, individual mice, n = 4"}, "[4]": {"details": "transferred cells, tumor, result in words"}}, "note": "Several values for one entry are separate records, joined by “and”; a condition that tells them apart may be missing. Equal entries are not always repeated."}
{"substance": "anteiso-C15 Leu7 surfactin [EpA]", "values": [{"measurement": "GzmB+ PRF1+ gate number", "setting": "[1]; CD45.1+ T cells in tumors, representative flow plot, Figure S4C", "result": 34.1}, {"measurement": "GzmB and Perforin expression", "setting": "[1]; [3]", "result": "68.8 and 68 and 57.8 and 55.7"}, {"measurement": "IFN-γ expression", "setting": "[1]; [3]", "result": "3.05 and 4.37 and 6.82 and 2.23"}, {"measurement": "TNF-α expression", "setting": "[1]; [3]", "result": "23.2 and 21 and 17.5 and 23.6"}, {"measurement": "IFN-γ, TNF-α, granzyme B and perforin", "setting": "[1]; transferred cells, spleen, result in words", "result": "markedly increased expression"}, {"measurement": "IFN-γ expression", "setting": "[1]; [4]", "result": "elevated"}, {"measurement": "TNF-α levels", "setting": "[1]; [4]", "result": "remained unchanged"}, {"measurement": "granzyme B+ perforin+ frequency", "setting": "[1]; [4]", "result": "significantly higher"}, {"measurement": "Expression of GzmB+Perforin+ of transferred CD45.1⁺ OT-II Th9 cells in tumor", "setting": "[1]; tumor, replicate 1", "result": 20.5}, {"measurement": "Expression of GzmB+Perforin+ of transferred CD45.1⁺ OT-II Th9 cells in tumor", "setting": "[1]; tumor, replicate 2", "result": 18.9}, {"measurement": "Expression of GzmB+Perforin+ of transferred CD45.1⁺ OT-II Th9 cells in tumor", "setting": "[1]; tumor, replicate 3", "result": 25.9}, {"measurement": "Expression of GzmB+Perforin+ of transferred CD45.1⁺ OT-II Th9 cells in tumor", "setting": "[1]; tumor, replicate 4", "result": 34.1}, {"measurement": "Expression of IFN-γ of transferred CD45.1⁺ OT-II Th9 cells in tumors", "setting": "[1]; replicate 1", "result": 386}, {"measurement": "Expression of IFN-γ of transferred CD45.1⁺ OT-II Th9 cells in tumors", "setting": "[1]; replicate 2", "result": 392}, {"measurement": "Expression of IFN-γ of transferred CD45.1⁺ OT-II Th9 cells in tumors", "setting": "[1]; replicate 3", "result": 420}, {"measurement": "Expression of IFN-γ of transferred CD45.1⁺ OT-II Th9 cells in tumors", "setting": "[1]; replicate 4", "result": 261}, {"measurement": "Expression of TNF-α of transferred CD45.1⁺ OT-II Th9 cells in tumors", "setting": "[1]; replicate 1", "result": 916}, {"measurement": "Expression of TNF-α of transferred CD45.1⁺ OT-II Th9 cells in tumors", "setting": "[1]; replicate 2", "result": 557}, {"measurement": "Expression of TNF-α of transferred CD45.1⁺ OT-II Th9 cells in tumors", "setting": "[1]; replicate 3", "result": 913}, {"measurement": "Expression of TNF-α of transferred CD45.1⁺ OT-II Th9 cells in tumors", "setting": "[1]; replicate 4", "result": 544}, {"measurement": "TMRM", "setting": "[2]; Figure 4N, individual replicates, (n = 5)", "result": "178315 and 162266 and 165932 and 168795 and 170537"}, {"measurement": "mitochondrial membrane potential", "setting": "[2]; result in words", "result": "elevated mitochondrial membrane potential"}]}
